Measured values from article PMC12566703, “Design, Synthesis, In Vitro and In Silico Biological Evaluation of New Pyridine-2,5-Dicarboxylates Esters Bearing Natural Source Fragments as Anti-Trypanosomatid Agents” (Pharmaceutics, 2025).
Where two headings read alike, the source gives them in different places.

What was measured:
[1] = test system: T. cruzi (A1) epimastigotes; test: In vitro trypanocidal activity, Alamar Blue assay, 48 h; type: cell-based, Trypanosoma cruzi; details: for Selectivity Index T. cruzi A1: CC50 (J774.2)/IC50; for IC50: 48 h, read-out: T. cruzi IC50 (µM ± SD) A1
Protocol: (§1) Both strains were maintained in liver infusion tryptose (LIT) medium supplemented with 10% FBS and 0.1% penicillin-streptomycin. They were preserved by transferring 1 × 10^6 parasites/mL into a new culture medium every week. […] The metabolic activity was determined by the Alamar Blue assay. Briefly, after the incubation period, 20 µL of 2.5 mM resazurin solution was added to each well and incubated for 3 h. Three independent experiments were performed in triplicate. The half-maximum inhibitory concentration (IC50) was determined using probit analysis.

[2] = test system: T. cruzi (NINOA) epimastigotes; test: as above; type: cell-based, Trypanosoma cruzi; details: for Selectivity Index T. cruzi NINOA: CC50 (J774.2)/IC50; for IC50: 48 h, read-out: T. cruzi IC50 (µM ± SD) NINOA; for IC50 / Trypanocidal activity class in words, NINOA strain: epimastigotes, NINOA strain; for Trypanocidal activity class in words, NINOA strain: classes by IC50
Protocol: as §1

[3] = test system: L. mexicana (MHOM/MX/2017/UABJO17FCQEPS) (FCQEPS) promastigotes; test: In vitro leishmanicidal activity, MTT method, 48 h; type: cell-based, Leishmania mexicana; details: for Selectivity Index L. mexicana FCQEPS: CC50 (J774.2)/IC50; for IC50: 48 h, read-out: L. mexicana IC50 (µM ± SD) FCQEPS; for IC50 / Leishmanicidal activity class in words, FCQEPS strain: promastigotes, FCQEPS strain; for Leishmanicidal activity class in words, FCQEPS strain: classes by IC50
Protocol: (§2) To determine the leishmanicidal activity of pyridine-2,5-dicarboxylates, the parasites, in their logarithmic growth phase (5 × 10^5 parasites/mL), were cultured in 96-well microliter plates with the corresponding pyridine-2,5-dicarboxylate compound at different concentrations (0.78–100 µM). Compounds were dissolved in DMSO in a final volume of 200 µL for 48 h at 26 °C. Parasites treated with DMSO (0.2%) were used as a negative control, while treatments with Glucantime and Amphotericin B, at the same concentrations, were used as positive controls. The metabolic activity of the cells was determined using the 3-(4,5-Dimethylthiazol-2-yl)-2,5-diphenyltetrazolium bromide (MTT) method. IC50 was determined using probit analysis. Three independent experiments were performed in triplicate, and the data were analyzed for statistical significance (p < 0.05) using Biostat 5.3.0 software.

[4] = test system: L. mexicana (MNYC/BZ/62/M379) (M379) promastigotes; test: In vitro leishmanicidal activity, MTT method, 48 h; type: cell-based, Leishmania mexicana; details: for Selectivity Index L. mexicana M379: CC50 (J774.2)/IC50; for IC50: 48 h, read-out: L. mexicana IC50 (µM ± SD) M379; for IC50 / Leishmanicidal activity class in words, M379 strain: promastigotes, M379 strain; for Leishmanicidal activity class in words, M379 strain: classes by IC50
Protocol: as §2

[5] = Cytotoxicity assay, MTT method, 48 h; type: cell-based, murine; details: mouse, J774.2 macrophage cells, J774.2 cell line, read-out: Macrophage J774.2 CC50 (µM ± SD)
Protocol: A cytotoxicity assay was performed using the murine macrophage J774.2 cell line, which was recloned from the original ascites and solid tumor J774.1 (according to the manufacturer). The cells were cultured in RPMI medium supplemented with 10% SBF, 100 U […] penicillin, 100 µg/mL streptomycin, and glutamine (2 mM), and 5% CO2 atmosphere. The medium was changed every 2–3 days. Macrophages were used at 1 × 10^6 cells and were incubated with compounds at different concentrations (0.75–100 µM, respectively) at 37 °C for 48 h in a 5% CO2 atmosphere. DMSO was used as a negative control (0.2%). The metabolic activity of macrophages was determined by the MTT method. The percentage of cell viability was calculated, and the half-maximal cytotoxic concentration (CC50) was determined using probit analysis. Three independent assays were conducted in triplicate.

[6] = Trypanosoma cruzi, epimastigotes, A1 strain

| Structure (SMILES) | Selectivity Index T. cruzi A1 [1] | IC50 [1, 6] [µM] | Selectivity Index T. cruzi NINOA [2] | IC50 ([2]; Trypanosoma cruzi) [µM] | IC50 [2] [µM] | Selectivity Index L. mexicana FCQEPS [3] | IC50 ([3]; Leishmania mexicana) [µM] | IC50 [3] [µM] | Selectivity Index L. mexicana M379 [4] | IC50 ([4]; Leishmania mexicana) [µM] | IC50 [4] [µM] | CC50 at 48 h [5] [µM] | Leishmanicidal activity class in words, FCQEPS strain [3] | Leishmanicidal activity class in words, M379 strain [4] | Trypanocidal activity class in words, NINOA strain [2] | IC50 ([1]; epimastigotes, A1 strain) [µM] | Trypanocidal activity class in words, A1 strain ([1]; epimastigotes, A1 strain, classes by IC50) |
| --- | --- | --- | --- | --- | --- | --- | --- | --- | --- | --- | --- | --- | --- | --- | --- | --- | --- |
| CCOC(=O)c1nc(C)c(C(=O)OCC23CC4CC(CC(C4)C2)C3)cc1-c1ccccc1 [Compound 10a] | >4.3 | 46.9 | >1.9 | 105 | 105 ± 1.34 | >1.2 | ≤ 162 | 161.53 ± 0.03 | >2.4 | ≤ 162 | 82.19 ± 0.01 | > 200 |  |  |  |  |  |
| CCOC(=O)c1nc(C)c(C(=O)OCc2ccc(C)cc2)cc1-c1ccc(F)cc1 [Compound 5c] | >9.6 | 20.8 ± 0.1 | >1 | > 200 |  | >1 | > 200 |  | >1 | > 200 |  | > 200 | abolished their leishmanicidal activity | inactive |  |  |  |
| CCOC(=O)c1nc(C)c(C(=O)OCc2ccc(C)cc2)cc1-c1ccccc1 [Compound 5a, 2-Ethyl 5-(4-methylbenzyl) 6-methyl-3-phenylpyridine-2,5-dicarboxylate] | >9.3 |  | >3.5 | ≤ 56.7 | 56.6 ± 1.26 | >2.1 | 95 ± 1.36 |  | >1 | > 200 |  | > 200 |  | did not have antiparasitic activity |  |  |  |
| CCOC(=O)c1nc(C)c(C(=O)O[C@@H]2C[C@@H](C)CC[C@@H]2C(C)C)cc1-c1ccccc1 [Compound 8a] | >1 | > 200 | >1 |  |  | >2.4 | 82.7 |  | >2.5 | 79.1 |  | > 200 |  |  | inactive |  |  |
| CCOC(=O)c1nc(C)c(C(=O)OCc2ccc3c(c2)OCO3)cc1-c1ccc(F)cc1 [Compound 6c] | >7.9 | 25.4 ± 0.6 | >1 | > 200 |  | >1 | > 200 |  | >1 | > 200 |  | > 200 |  | inactive |  |  |  |
| CCOC(=O)c1nc(C)c(C(=O)OCC=Cc2ccccc2)cc1-c1ccc(F)cc1 [Compound 7c] | >8.8 | 22.8 ± 0.69 | >3.1 | 63.1 ± 1.64 |  | >1 | > 200 |  | >1 | > 200 |  | > 200 |  | inactive |  |  |  |
| CCOC(=O)c1nc(C)c(C(=O)OCc2ccccc2)cc1-c1ccc(C)cc1 [Compound 4b, 5-Benzyl 2-ethyl 6-methyl-3-(p-tolyl)pyridine-2,5-dicarboxylate] | >3.8 | ≤ 56.7 | >7.5 |  |  | >1 | > 200 |  | >1 | > 200 |  | > 200 |  | did not have antiparasitic activity |  | 52.6 ± 1.87 |  |
| CCOC(=O)c1nc(C)c(C(=O)OCCC(C)CCC=C(C)C)cc1-c1ccccc1 (stereo not shown) [Compound 11a] |  | > 200 |  | > 200 |  | 1.6 | 73 ± 1.78 |  |  | > 200 |  | 119 ± 7.3 |  | did not have antiparasitic activity | inactive |  |  |
| CCOC(=O)c1nc(C)c(C(=O)OCCC(C)CCC=C(C)C)cc1-c1ccc(F)cc1 (stereo not shown) [Compound 11c] | >8.0 | 24.9 ± 4.1 | >2.5 | 79.9 ± 2.6 |  | >1 | > 200 |  | >1 | > 200 |  | > 200 | abolished their leishmanicidal activity | inactive |  |  |  |
| CCOC(=O)c1nc(C)c(C(=O)OCC=Cc2ccccc2)cc1-c1ccc(C)cc1 [Compound 7b] | >1 | > 200 | >2.0 |  |  | >1.7 | 116.71 ± 0.03 |  | >1 | > 200 |  | > 200 |  | did not have antiparasitic activity |  |  | completely lose their trypanocidal activity |
| CCOC(=O)c1nc(C)c(C(=O)OCc2ccccc2)cc1-c1ccccc1 [Compound 4a, 5-Benzyl 2-ethyl 6-methyl-3-phenylpyridine-2,5-dicarboxylate] | >7.0 | ≤ 56.7 | >4.7 | ≤ 56.7 | 42.4 ± 1.88 | >1 | > 200 |  | >1 | > 200 |  | > 200 | did not have leishmanicidal activity | did not have antiparasitic activity |  | 28.5 ± 1.5 |  |
| CCOC(=O)c1nc(C)c(C(=O)OCc2ccccc2)cc1-c1ccc(F)cc1 [Compound 4c] | >1 | > 200 | >1 | > 200 |  | >1 | > 200 |  | >1 | > 200 |  | > 200 |  | inactive |  |  |  |
| CCOC(=O)c1nc(C)c(C(=O)OC2C[C@@H]3CC[C@@]2(C)C3(C)C)cc1-c1ccc(F)cc1 (stereo partly shown) [Compound 9c] | >1 | > 200 | >7.6 | 26.2 | 26.2 ± 1.55 | >1 | > 200 |  | >1 | > 200 |  | > 200 |  | inactive |  |  |  |
| CCOC(=O)c1nc(C)c(C(=O)OCc2ccc3c(c2)OCO3)cc1-c1ccccc1 [Compound 6a, 5-(Benzo[d][1,3]dioxol-5-ylmethyl) 2-ethyl 6-methyl-3-phenylpyridine-2,5-dicarboxylate] | >1 | > 200 | >7.3 | < 28 | 27.2 ± 0.84 | >1 | > 200 |  | >1 | > 200 |  | > 200 | did not have leishmanicidal activity | did not have antiparasitic activity |  |  |  |
| CCOC(=O)c1cc(-c2ccc(F)cc2)c(C(=O)OCC)nc1C [Compound 3c] | >2.2 | 91.7 ± 1.72 | >1.9 | 100 ± 1.86 |  | >1.7 | 118 ± 2.08 |  | >1 | > 200 |  | > 200 |  | inactive |  |  |  |
